Test results published in patent publication US7585854B2, “Method for treating endometriosis” (Tochigi Institute of Clinical Pathology, priority 2000, dated 2009).
Where a name gives a salt, the structure may show the parent alone.

System: endometriosis model rats
Assay: Therapeutic effect in endometriosis model rats (uterine tissue autotransplanted to peritoneum; lesion observed by light and electron microscopy)
Assay type: in vivo, Sprague-Dawley rats (female)
Settings: oral; for invasion of mast cells compared with Comparative Example 1 (non-treated model rats): 0.04 mg/kg bodyweight per day for 6 days from 24 hours after model preparation, lesion sampled at day 7; for therapy of endometriosis (overall conclusion) / apoptosis of fibroblast cells / proliferation of the interstitial cells: 0.04 mg/kg bodyweight per day for 6 days, day 7; for apoptosis of fibroblast cells / proliferation of the interstitial cells: light and electron microscope
Protocol: Endometriosis model rats were prepared by the method described in Michael W. Vernon et al., FERTILITY AND STERILITY, Vol. 44, No. 5, November 1985. That is, endometriosis model rats were prepared as follows: Sprague-Dawley rats (female) of 8 weeks old were acclimatized for 2 weeks under 12 hours light-dark condition. From each rat, right uterine horn was excised under general anesthesia with sevoflurane and ketamine hydrochloride, and a tissue piece sizing 5 mm×5 mm was prepared therefrom. The tissue piece was subjected to autotransplantation such that the endometrium surface is attached to peritoneum.
Seven days after the preparation of the model rats, at which the model lesion reached its peak, the peritoneum tissue including the graft up to the abdominal muscle was excised to obtain a lesion sample. From the thus obtained samples, light microscope specimens (hematoxylin-eosin staining, toluidine blue staining) and electron microscope specimens (uranium-lead double staining) were prepared, and observations with an light microscope (the magnifications were 4× for hematoxylineosin-stained specimens, and 20× for toluidine blue-stained specimens, respectively), and with an electron microscope were carried out as in Reference Example 1.
Endometriosis model rats were prepared by the same method as in Comparative Example 1. From 24 hours after the preparation of the endometriosis model rats, an antiallergic agent (trademark “Alesion Tablet” produced by Boehringer Ingelheim) containing epinastine hydrochloride as the active component was orally administered to the rats for 6 days at a dose of 0.04 mg/kg bodyweight per day in terms of epinastine hydrochloride. Seven days after the preparation of the model rats, at which the model lesion reached its peak, the peritoneum tissues including the graft up to the abdominal muscle were excised to obtain lesion samples.
The same procedures as in Example 1 were repeated except that an antiallergic agent containing ketotifen fumarate as the active component (trademark “Zaditen” produced by Ciba-Geigy Japan Limited) was administered in place of the antiallergic agent containing epinastine hydrochloride as an active component.
The same procedures as in Example 1 were repeated except that an antiallergic agent containing pranlukast hydrate as the active component (trademark “ONON CAPSULE” produced by ONO PHARMACEUTICAL CO.,LTD.) was administered in place of the antiallergic agent containing epinastine hydrochloride as an active component, and that the administration dose per day was 9 mg/kg in terms of pranlukast hydrate.

Structure (SMILES) | invasion of mast cells compared with Comparative Example 1 (non-treated model rats) | therapy of endometriosis (overall conclusion) | apoptosis of fibroblast cells | proliferation of the interstitial cells
CN1CCC(=C2c3ccccc3CC(=O)c3sccc32)CC1 [ketofetin, ketotifen fumarate] | apparently reduced | effective | observed | prominent inhibition
NC1=NCC2c3ccccc3Cc3ccccc3N12 (centres unmarked) [epinastine, epinastine hydrochloride] | apparently reduced | effective | observed | prominent inhibition
